Experiment in all cases: NCI-60 cell line screen, 48 h
Experiment [1] relates to A498 renal.
For experiment [2], the system named is T-47D breast.
Experiment [3] concerns HCT-116 colon.
In experiment [4] the test system is UACC-257 melanoma.
In experiment [5] the test system is MOLT-4 leukemia.
Experiment [6] has as its system SF-539 CNS.
In experiment [7] the test system is SN12C renal.
Experiment [8] has as its system MALME-3M melanoma.
The subject of experiment [9] is IGROV1 ovarian.
Experiment [10] deals with DU-145 prostate.

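Tested at 5 concentrations; 48 h exposure; 96-well plates; endpoints linearly interpolated, else capped at highest concentration. At the GI50, growth is halved. TGI: concentration producing complete growth inhibition.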

As to `CN(C)CCNc1ccc2ncnc3c2c1C(=O)c1ccccc1-3`, the TGI in experiment [1] turned out to be 9.25 µM; in experiment [2], 24.7 µM; in experiment [3] it was 1.71 µM; in [4], 11.5 µM; in [5], 2.31 µM; in [6], 17 µM. Further, the TGI in [7] came to 13.9 µM; in experiment [8], 2.38 µM; in experiment [9], 0.574 µM.
Turning to `Cc1nc(Cl)c2sc(=S)n(-c3ccc(F)cc3)c2n1`, the TGI came out at 3.82 µM in experiment [10]; 7.23 µM in experiment [1]; 4.15 µM in experiment [3]; 10.5 µM in [4]; 18.4 µM in experiment [7]; 23.9 µM in experiment [8]. In [9], this compound registered a TGI of 3.53 µM.
Consider `CO[C@H]1[C@@H](O)[C@@H](C)O[C@@H](O[C@H]2CC[C@@]3(C)[C@H](CC[C@@H]4[C@@H]3CC[C@]3(C)[C@@H](C5=CC(=O)OC5)CC[C@]43O)C2)[C@@H]1O`, for which the TGI stood at 0.00729 µM in [10]; 0.813 µM in [1]; 0.222 µM in [2]; 0.0275 µM in [3]; 0.0446 µM in [4]; 0.436 µM in experiment [5]. Also, the TGI in [6] came out at 0.0247 µM; in [8], 0.00902 µM; in [9], 0.0848 µM.
For `CCC(CS(=O)(=O)O)[N+](=O)[O-]` (centres undefined), the TGI in experiment [10], in [1], in [2], in [3], in experiment [4] and in experiment [5] was > 100 µM throughout. The TGI in experiment [6], in [7], in [8] and in [9] was > 100 µM in each case.
For `Nc1ccc2c(c1)C1=NNC(=O)CC1C2` (centres undefined), the TGI in experiment [1], in experiment [3], in experiment [4], in experiment [5], in experiment [6] and in experiment [7] was > 100 µM throughout. Moreover, the TGI in experiment [8] and in experiment [9] was > 100 µM each time.
As for `COc1ccc(-c2cc(-c3ccccc3)n(C3OCC(OC(C)=O)C(OC(C)=O)C3OC(C)=O)c(=S)c2C#N)cc1` (centres undefined), the TGI in experiment [10], in [1], in [2], in [3], in experiment [4] and in experiment [5] was > 100 µM each time. Further, the TGI in experiment [6], in [7], in [8] and in experiment [9] was > 100 µM throughout.
Consider `CC1SC(c2ccccc2)N(Nc2c3ccccc3nc3ccccc23)C1=O` (centres undefined), for which the TGI in experiment [3], in [4], in experiment [5], in [6], in [7] and in experiment [8] was > 100 µM each time. The TGI in experiment [9] is > 100 µM.
As for `[N-]=[N+]=Nc1ccc(NCCCCCC(=O)ON2C(=O)CCC2=O)c([N+](=O)[O-])c1`, the TGI in experiment [10], in [2], in experiment [3], in experiment [4], in [5] and in experiment [6] was > 100 µM each time. For the same compound, the TGI in experiment [7], in experiment [8] and in experiment [9] was > 100 µM each time.
With `COc1cc(-c2n/c(=C\c3c(O)[nH]c4ccc(Cl)cc34)cc3c2=Nc2ccccc2-3)cc(OC)c1OC`, the GI50 in [10] is 655 nM; in [1], 1760 nM; in experiment [2], 1280 nM; in [3], 232 nM; in experiment [5] it was 679 nM; in [6] it was 2320 nM. Besides, the GI50 in experiment [7] was 754 nM; in [9] it was 685 nM. The TGI in [10] came out at 2.59 µM; in [1], 4.71 µM; in experiment [2], 3.21 µM; in experiment [3] it was 0.595 µM; in [5], 3.64 µM; in experiment [6], 4.91 µM. Moreover, the TGI in experiment [7] is 2.36 µM; in experiment [9], 4.09 µM.
On to `NCC[Se][Se]CCN`, for which the TGI in experiment [10] was 26.4 µM; in [1], 23.8 µM; in experiment [2], 64.4 µM; in [3], 15.3 µM; in [4], 20.4 µM; in experiment [5], > 100 µM. Moreover, the TGI was 34.4 µM in [6], 21.5 µM in experiment [7], 25.2 µM in experiment [8] and 25.7 µM in experiment [9].
In the case of `COc1ccc(OC)c([N+](=O)[O-])c1-c1nc2sccn2c1/C=N/N=C(N)N`, the TGI in experiment [10] is > 100 µM; in experiment [1] it was > 100 µM; in [2], > 100 µM; in [3], > 100 µM; in experiment [4], > 100 µM; in experiment [5], 69.5 µM. In addition, the TGI in experiment [6], in experiment [7], in [8] and in experiment [9] was > 100 µM each time.
As to `CC(CN(C)C)C(=O)c1ccccc1C(=O)O` (centres undefined), the TGI in [10] is > 100 µM; in experiment [1] it was > 100 µM; in [2] it was > 100 µM; in experiment [3], > 100 µM; in experiment [5] it was 70.1 µM; in experiment [7] it was 81.2 µM. For the same compound, the TGI was 83 µM in experiment [8] and > 100 µM in experiment [9].
Turning to `O=C(CCCn1c(=O)c2sc3ccccc3c2n2nnc(-c3ccccc3)c12)NCCc1cnc[nH]1`, the GI50 in experiment [10] was 1550 nM; in experiment [1] it was 1550 nM; in [2] it was 1400 nM; in experiment [3], 341 nM; in experiment [4], 2040 nM; in [6], 664 nM. Further, the GI50 is 271 nM in [7] and 2490 nM in experiment [8]. In addition, the TGI came to 2.98 µM in experiment [10]; 3 µM in experiment [1]; 4.49 µM in [2]; 1.66 µM in [3]; 4.58 µM in [4]; 2.19 µM in experiment [6]. Also, the TGI amounted to 1.87 µM in experiment [7] and 5.49 µM in [8].
As for `O=[N+]([O-])c1ccc(N=Nc2c(O)ccc3cc(S(=O)(=O)O)ccc23)cc1`, the TGI in experiment [10], in [1], in [2], in [3], in experiment [4] and in experiment [5] was > 100 µM in each case. The TGI in experiment [7], in experiment [8] and in [9] was > 100 µM each time.
In the case of `CNC(C)Cc1ccccc1O` (centres undefined), the TGI in experiment [1], in experiment [3], in [4], in experiment [5], in [6] and in experiment [7] was > 100 µM in each case. The TGI in [8] and in experiment [9] was > 100 µM in each case.
For the compound `CCn1nc(C)c2c1C(=O)NC(C)C(=O)N2` (centres undefined), the TGI in [10], in experiment [1], in experiment [3], in experiment [4], in experiment [6] and in experiment [7] was > 100 µM in each case. In [9], the TGI was > 100 µM.
Regarding `CC(C)(N)CO[C@H]1C[C@H]2CC[C@@]1(C)C2(C)C`, the TGI in experiment [10] stood at 73.8 µM; in [1], 82.1 µM; in experiment [2], 35.9 µM; in [3], 29.8 µM; in experiment [4], 34.7 µM; in experiment [5] it was 80.9 µM. In addition, the TGI was 41 µM in [6], > 100 µM in experiment [7], 33.6 µM in experiment [8] and > 100 µM in experiment [9].
As to `COc1cc2cc[n+](C)c(Cc3ccccc3)c2cc1OC`, the TGI in experiment [1], in [3], in experiment [4], in experiment [5], in experiment [6] and in experiment [7] was > 100 µM throughout. For the same compound, the TGI in [8] and in experiment [9] was > 100 µM each time.
`C=C(C)[C@@H]1CC[C@]2(C)CC[C@]3(C)[C@H](CC[C@@H]4[C@@]5(C)CC[C@H](OC(=O)c6ccccc6)C(C)(C)[C@@H]5CC[C@]43C)[C@@H]12`: the TGI in experiment [10], in experiment [1], in experiment [2], in experiment [3], in experiment [4] and in experiment [5] was > 100 µM in each case. Moreover, the TGI in experiment [6], in [7], in experiment [8] and in [9] was > 100 µM each time.
Regarding `O=S1(=O)NNC(=NCc2ccc(Cl)c(Cl)c2)c2ccccc21`, the TGI was > 100 µM in experiment [1]; > 100 µM in experiment [3]; > 100 µM in experiment [4]; 98.8 µM in [5]; > 100 µM in [6]; > 100 µM in experiment [7]. Further, the TGI in experiment [8] and in experiment [9] was > 100 µM in each case.

(Values after PubChem BioAssay (NCI).)
